{"source": "paper PMC4791286", "about": "“Puquitinib mesylate, an inhibitor of phosphatidylinositol 3-kinase p110δ, for treating relapsed or refractory non-Hodgkin's lymphoma” (Oncotarget, 2015)", "origin": "cited, not measured here", "key": {"[1]": {"system": "advanced solid tumors and lymphoma", "set-up": "method as in PMID 22357447", "details": "cited from earlier work"}, "[2]": {"system": "indolent non-Hodgkin lymphoma (iNHL)", "set-up": "method as in PMID 24615776", "details": "cited from earlier work"}, "p110δ": {"system": "p110δ", "set-up": "method as in PMID 20959606", "details": "cited from earlier work"}, "MCL": {"system": "MCL", "set-up": "method as in PMID 24615778", "details": "n = 40; cited from earlier work"}, "advanced solid tumors": {"system": "advanced solid tumors", "details": "human, in vivo; cited from earlier work"}}, "data": [{"smiles": "COc1ccc(-c2ccc3ncc4c(c3c2)n(-c2ccc(N3CCNCC3)c(C(F)(F)F)c2)c(=O)n4C)cn1", "note": "[BGT226]", "values": [{"measurement": "AST elevations, Grade 2", "setting": "[1]", "value": 9, "unit": "n"}, {"measurement": "AST elevations, Grade 3", "setting": "[1]", "value": 3, "unit": "n"}]}, {"smiles": "CC[C@H](Nc1ncnc2[nH]cnc12)c1nc2cccc(F)c2c(=O)n1-c1ccccc1", "note": "[Idelalisib]", "values": [{"measurement": "Asymptomatic grade 3 or greater serum transaminase elevations", "setting": "[2]; iNHL, n = 64", "value": 25, "unit": "%"}, {"measurement": "Response rate", "setting": "[2]; marginal-zone lymphoma subtype", "value": 33, "unit": "%"}, {"measurement": "IC50", "setting": "p110δ", "value": "[…]"}, {"measurement": "Asymptomatic grade 3 or greater serum transaminase elevations", "setting": "MCL", "value": 35, "unit": "%"}]}, {"smiles": "C=CCN(/C=C1/C(=O)O[C@H](COC)[C@@]2(C)C1=C(O)C(=O)C1=C2[C@H](OC(C)=O)C[C@]2(C)C(=O)CC[C@@H]12)CC=C", "note": "[PX866]", "values": [{"measurement": "Grade 3 AST abnormalities", "setting": "advanced solid tumors", "value": "2 of 84 patients"}]}]}
